# Reference: US9999616B2 (ZENITH EPIGENETICS LTD., priority 2013, dated 2018)
# Biological target: Brd4 bromodomain 1 (BRD4(1)) (Homo sapiens, UniProt O60885)
# Assay: Inhibition of tetra-acetylated histone H4 binding to Brd4 bromodomain 1, measured by FRET (HTRF)
# Design: made in house; host or cells: E. coli BL21(DE3)
# Details: 2 h at room temperature
# Experimental: Proteins were cloned and overexpressed with a N-terminal 6×His tag, then purified by nickel affinity followed by size exclusion chromatography. Briefly, E. coli BL21(DE3) cells were transformed with a recombinant expression vector encoding N-terminally Nickel affinity tagged bromodomains from Brd2, Brd3, Brd4. Cell cultures were incubated at 37° C. with shaking to the appropriate density and induced overnight with IPTG. The supernatant of lysed cells was loaded onto Ni-IDA column for purification. Eluted protein was pooled, concentrated and further purified by size exclusion chromatography. Fractions representing monomeric protein were pooled, concentrated, aliquoted, and frozen at −80° C. for use in subsequent experiments.
# Binding of tetra-acetylated histone H4 and BET bromodomains was confirmed by a Homogenous Time Resolved Fluorescence Resonance Energy Transfer (HTRF®) method. N-terminally His-tagged bromodomains (200 nM) and biotinylated tetra-acetylated histone H4 peptide (25-50 nM, Millipore) were incubated in the presence of Europium Cryptate-labeled streptavidin (Cisbio Cat. #610SAKLB) and XL665-labeled monoclonal anti-His antibody (Cisbio Cat. #61HISXLB) in a white 96 well microtiter plate (Greiner). For inhibition assays, serially diluted test compound was added to these reactions in a 0.2% final concentration of DMSO. Duplicate wells were used for each concentration tested. Final buffer concentrations were 30 mM HEPES pH 7.4, 30 mM NaCl, 0.3 mM CHAPS, 20 mM phosphate pH 7.0, 320 mM KF, 0.08% BSA. After a 2 h incubation at room temperature, fluorescence was measured at 665 and 620 nm with a SynergyH4 plate reader (Biotek). The binding inhibitory activity was shown by a decrease in 665 nm relative to 620 nm fluorescence. IC50 values were determined from a dose response curve.
row,SMILES,IC50
1,"Cc1noc(C)c1-c1nc(-c2c(C)noc2C)c2ccccc2n1 [Example Compound 3, 4,4′-(quinazoline-2,4-diyl)bis (3,5-dimethyl isoxazole)]",3 to 30 µM
2,"Cc1noc(C)c1-c1cn2ccnc2c(-c2c(C)noc2C)n1 [Example Compound 10, 4,4′-(imidazo [1,2-a]pyrazine-6,8-diyl)bis(3,5-dimethylisoxazole)]",3 to 30 µM
3,"Cc1noc(C)c1-c1cc(-c2c(C)nn(C)c2C)cc2[nH]cnc12 [Example Compound 14, 3,5-dimethyl-4-(6-(1,3,5-trimethyl-1H-pyrazol-4-yl)-1H-benzo[d]imidazol-4-yl)isoxazole]",3 to 30 µM
4,"Cc1noc(C)c1-c1cc(-c2c(C)noc2C)c2ncnn2c1 [Example Compound 17, 4,4′-([1,2,4]triazolo [1,5-a]pyridine-6,8-diyl)bis (3,5-dimethyl-isoxazole)]",3 to 30 µM
5,"Cc1noc(C)c1-c1cc(-c2c(C)noc2C)c2nc(NCc3ccccc3)[nH]c2c1 [Example Compound 31, N-benzyl-4,6-bis(3,5-dimethylisoxazol-4-yl)-1H-benzo[d] imidazol-2-amine]",≤ 0.3 µM
6,"Cc1noc(C)c1-c1cc(Nc2cnccn2)c2nc[nH]c2c1 [Example Compound 62, 6-(3,5 dimethyl-isoxazol-4-yl)-N-(pyrazin-2-yl)-1H-benzo[d] imidazol-4-amine]",0.3 to 3 µM
7,"Cc1nc2c(Nc3ncccc3C)cc(-c3c(C)noc3C)cc2[nH]1 [Example Compound 63, 6-(3,5-dimethyl-isoxazol-4-yl)-2-methyl-N-(3-methylpyridin-2-yl)-1H-benzo[d] imidazol-4-amine]",0.3 to 3 µM
8,"Cc1noc(C)c1-c1cc(-c2c(C)noc2C)c2nc(NCc3cccnc3)[nH]c2c1 [Example Compound 65, 4,6-bis(3,5-dimethyl-isoxazol-4-yl)-N-(pyridin-3-ylmethyl)-1H-benzo[d] imidazol-2-amine]",≤ 0.3 µM
9,"Cc1nc2c(-c3ccccc3C#N)cc(-c3c(C)noc3C)cc2[nH]1 [Example Compound 71, 2-(6-(3,5-dimethyl-isoxazol-4-yl)-2-methyl-1H-benzo[d]imidazol-4-yl)benzonitrile]",3 to 30 µM
10,"Cc1nc2c(-c3cc(C(=O)O)ccc3C)cc(-c3c(C)noc3C)cc2[nH]1 [Example Compound 75, 3-(6-(3,5-dimethyl-isoxazol-4-yl)-2-methyl-1H-benzo[d]imidazol-4-yl)-4-methyl benzoic acid]",0.3 to 3 µM
11,"Cc1nc2c(-c3ccccc3C(F)(F)F)cc(-c3c(C)noc3C)cc2[nH]1 [Example Compound 78, 3,5-dimethyl-4-(2-methyl-4-(2-(trifluoromethyl)phenyl)-1H-benzo[d]imidazol-6-yl)isoxazole]",0.3 to 3 µM
12,"Cc1nc2c(-c3cccnc3N)cc(-c3c(C)noc3C)cc2[nH]1 [Example Compound 82, 3-(6-(3,5-dimethyl-isoxazol-4-yl)-2-methyl-1H-benzo[d]imidazol-4-yl)pyridin-2-amine]",0.3 to 3 µM
13,"Cc1nc2c(-c3cccc(F)c3C#N)cc(-c3c(C)noc3C)cc2[nH]1 [Example Compound 83, 2-(6-(3,5-dimethyl-isoxazol-4-yl)-2-methyl-1H-benzo[d]imidazol-4-yl)-6-fluoro-benzonitrile]",0.3 to 3 µM
14,"Cc1ccc(-c2cc(-c3c(C)noc3C)cc3[nH]c(C)nc23)nn1 [Example Compound 86, 3,5-dimethyl-4-(2-methyl-4-(6-methyl-pyridazin-3-yl)-1H-benzo[d]imidazol-6-yl)isoxazole]",0.3 to 3 µM
15,"Cc1nc2c(-c3ccc(Cl)cc3C)cc(-c3c(C)noc3C)cc2[nH]1 [Example Compound 90, 4-(4-(4-chloro-2-methyl-phenyl)-2-methyl-1H-benzo[d]imidazol-6-yl)-3,5-dimethyl isoxazole]",0.3 to 3 µM
16,"Cc1nc2c(-c3cccc(OC(F)(F)F)c3)cc(-c3c(C)noc3C)cc2[nH]1 [Example Compound 96, 3,5-dimethyl-4-(2-methyl-4-(3-(trifluoro-methoxy)phenyl)-1H-benzo[d]imidazol-6-yl)isoxazole]",≤ 0.3 µM
17,"Cc1nc2cc(-c3c(C)noc3C)cc(-c3c(C)noc3C)c2o1 [Example Compound 101, 5,7-bis(3,5-dimethylisoxazol-4-yl)-2-methylbenzo[d]oxazole]",≤ 0.3 µM
18,"COc1ccccc1S(=O)(=O)Nc1cc(-c2c(C)noc2C)cc2[nH]cnc12 [Example Compound 102, N-(6-(3,5-dimethylisoxazol-4-yl)-1H-benzo[d]imidazol-4-yl)-2-methoxybenzenesulfonamide]",0.3 to 3 µM

row,SMILES,IC50
1,"Cc1nc2c(-c3cccc4cccnc34)cc(-c3c(C)noc3C)cc2[nH]1 [Example Compound 111, 3,5-dimethyl-4-(2-methyl-4-(quinolin-8-yl)-1H-benzo[d]imidazol-6-yl)isoxazole]",0.3 to 3 µM
2,"Cc1nc2c(-c3ncsc3C)cc(-c3c(C)noc3C)cc2[nH]1 [Example Compound 113, 3,5-dimethyl-4-(2-methyl-4-(5-methyl-thiazol-4-yl)-1H-benzo[d]imidazol-6-yl)isoxazole]",0.3 to 3 µM
3,"Cc1nc2c(-c3cn(C)nc3C(F)(F)F)cc(-c3c(C)noc3C)cc2[nH]1 [Example Compound 115, 3,5-dimethyl-4-(2-methyl-4-(1-methyl-3-(trifluoro-methyl)-1H-pyrazol-4-yl)-1H-benzo[d]imidazol-6-yl)isoxazole]",0.3 to 3 µM
4,"Cc1noc(C)c1-c1cc(-c2c(C)noc2C)c2nc(N(C)C)[nH]c2c1 [Example Compound 116, 4,6-bis(3,5-dimethyl-isoxazol-4-yl)-N,N-dimethyl-1H-benzo[d] imidazol-2-amine]",0.3 to 3 µM
5,"Cc1nc2c(N3CCCCC3=O)cc(-c3c(C)noc3C)cc2[nH]1 [Example Compound 122, 1-(6-(3,5-dimethylisoxazol-4-yl)-2-methyl-1H-benzo[d]imidazol-4-yl)piperidin-2-one]",0.3 to 3 µM
6,"Cc1nc2c(-c3cn(C)nc3C)cc(-c3cn(C)nc3C)cc2[nH]1 [Example Compound 133, 4,6-bis(1,3-dimethyl-1H-pyrazol-4-yl)-2-methyl-1H-benzo[d] imidazole]",3 to 30 µM
7,"Cc1nc2c(-c3ccnn3C)cc(-c3ccnn3C)cc2[nH]1 [Example Compound 134, 2-methyl-4,6-bis(1-methyl-1H-pyrazol-5-yl)-1H-benzo[d] imidazole]",0.3 to 3 µM
8,"Cc1noc(C)c1-c1cc(-c2c(C)noc2C)c2n[nH]c(=O)n2c1 [Example Compound 149, 6,8-bis(3,5-dimethyl-isoxazol-4-yl)-[1,2,4] triazolo[4,3-a] pyridin-3(2H)-one]",3 to 30 µM
9,"Cc1noc(C)c1-c1cc(-c2c(C)noc2C)c2nccnc2c1 [Example Compound 159, 4,4′-(quinoxaline-5,7-diyl)bis(3,5-dimethylisoxazole)]",0.3 to 3 µM
10,"Cc1nc2c(-c3c(C)cnn3C)cc(-c3c(C)cnn3C)cc2[nH]1 [Example Compound 167, 4,6-bis(1,4-dimethyl-1H-pyrazol-5-yl)-2-methyl-1H-benzo[d] imidazole]",0.3 to 3 µM
11,"Cc1nc2c(-c3sc(C)nc3C)cc(-c3sc(C)nc3C)cc2[nH]1 [Example Compound 168, 5,5′-(2-methyl-1H-benzo[d]imidazole-4,6-diyl) bis(2,4-dimethylthiazole)]",3 to 30 µM
12,"Cc1nc2c(-c3c(C)noc3C)cc(-c3c(C)noc3C)nc2[nH]1 [Example Compound 176, 4,4′-(2-methyl-3H-imidazo[4,5-b]pyridine-5,7-diyl)bis(3,5-dimethylisoxazole)]",0.3 to 3 µM
13,"CSc1nc2cc(-c3c(C)noc3C)cc(-c3c(C)nn(C)c3C)c2n1C [Example Compound 191, 3,5-dimethyl-4-(1-methyl-2-(methylthio)-7-(1,3,5-trimethyl-1H-pyrazol-4-yl)-1H-benzo[d]imidazol-5-yl)isoxazole]",≤ 0.3 µM
14,"Cc1ccc(C#N)cc1-c1cc(-c2c(C)noc2C)cc2[nH]c(N3CCOCC3)nc12 [Example Compound 193, 3-(6-(3,5-dimethyl-isoxazol-4-yl)-2-morpholino-1H-benzo[d]imidazol-4-yl)-4-methyl benzonitrile]",≤ 0.3 µM
15,"Cc1ccncc1-c1cc(-c2c(C)noc2C)cc2[nH]c(N3CCN(C)CC3)nc12 [Example Compound 199, 3,5-dimethyl-4-(2-(4-methylpiperazin-1-yl)-4-(4-methylpyridin-3-yl)-1H-benzo[d]imidazol-6-yl)isoxazole]",0.3 to 3 µM
16,Cc1noc(C)c1-c1cc(-c2c(C)nn(C)c2C)c2nc(N3CCC3)[nH]c2c1 [Example Compound 217],≤ 0.3 µM
17,"Cc1ccc(C(=O)N2CCCC2)cc1-c1cc(-c2c(C)noc2C)cc2[nH]c(N3CCCC3)nc12 [Example Compound 218, (3-(6-(3,5-dimethylisoxazol-4-yl)-2-(pyrrolidin-1-yl)-1H-benzo[d]imidazol-4-yl)-4-methylphenyl)(pyrrolidin-1-yl)methanone]",≤ 0.3 µM
